Data taken from US20210009551A1, “COMPOUNDS AND METHODS FOR TREATING FIBROSIS OR CANCER” (THE REGENTS OF THE UNIVERSITY OF CALIFORNIA, priority 2016, published 2021).

How the values were obtained:
human LOXL2 [1] = target: T1, human LOXL2 (Homo sapiens, UniProt Q9Y4K0); experiment: Collagen crosslinking induced by recombinant LOXL2 in lung fibroblasts (Sircol assay); type: cell-based; settings: primary human lung fibroblasts, 7 days
T1 sequence (Q9Y4K0 26-774): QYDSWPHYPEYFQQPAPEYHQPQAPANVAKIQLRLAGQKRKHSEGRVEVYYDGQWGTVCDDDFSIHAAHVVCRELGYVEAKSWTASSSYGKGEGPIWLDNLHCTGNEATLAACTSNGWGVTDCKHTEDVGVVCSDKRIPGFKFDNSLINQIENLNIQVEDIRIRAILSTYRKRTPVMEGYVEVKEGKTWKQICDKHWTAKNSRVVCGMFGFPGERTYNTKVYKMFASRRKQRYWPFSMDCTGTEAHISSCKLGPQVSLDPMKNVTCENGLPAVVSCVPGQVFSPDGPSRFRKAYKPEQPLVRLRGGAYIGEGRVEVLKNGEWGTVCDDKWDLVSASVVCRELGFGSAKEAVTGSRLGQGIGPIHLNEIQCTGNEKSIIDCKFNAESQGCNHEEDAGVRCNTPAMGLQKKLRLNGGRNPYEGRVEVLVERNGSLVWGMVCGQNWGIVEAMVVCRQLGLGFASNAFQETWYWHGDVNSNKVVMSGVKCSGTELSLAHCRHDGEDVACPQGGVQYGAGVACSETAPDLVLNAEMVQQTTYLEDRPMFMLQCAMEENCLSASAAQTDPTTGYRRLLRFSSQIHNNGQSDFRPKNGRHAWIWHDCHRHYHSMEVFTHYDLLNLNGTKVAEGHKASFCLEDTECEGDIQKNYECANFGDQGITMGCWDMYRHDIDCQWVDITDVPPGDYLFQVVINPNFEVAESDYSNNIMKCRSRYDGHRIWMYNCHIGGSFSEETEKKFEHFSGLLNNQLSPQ
Protocol: Preparation of insoluble cross-linked collagen. Fibroblasts were cultured on 10 cm dish until confluent. The medium was then changed to Dulbecco's modified Eagle's medium (DMEM) containing 5% FBS, 100 μM L-ascorbic acid with 500 kDa Dextran Sulfate at 100 μg/ml, and 50 ng/ml recombinant human LOXL2 (rhLOXL2) for 7 days^21,22. The cell layer was extracted with 0.5 M acetic acid and 0.1 mg/ml pepsin overnight at 4° C. The leftover insoluble fraction was further extracted and the insoluble cross-linked collagen measured using Sircol Insoluble Collagen Assay kit according to manufacture's instruction.

LOXL2-high A549 cells = experiment: Corilagin level in conditioned medium by LC-MS, A549; type: in vitro ADME; settings: 1 μM, 5 hrs
LOXL2-low HaCaT cells = experiment: Corilagin level in conditioned medium by LC-MS, HaCaT; type: in vitro ADME; settings: 1 μM, 5 hrs
human LOXL2 [2] = target: T1, human LOXL2; experiment: LOX activity assay (H2O2 release, fluorimetric); type: biochemical; settings: 1 h incubation, read-out: IC50 of LOXL2 enzymatic activity toward a model substrate
Protocol: LOX activity assay LOX activity of recombinant human LOXL2 or conditioned medium collected from cells expressing LOXL2 was measured using a Fluorimetric Lysyl Oxidase Activity Assay Kit (Abeam, Cambridge, Mass.) following a protocol provided by the manufacturer. Briefly, 50 μl of sample was mixed with an equal volume of assay reaction mixture containing LOX substrate, horseradish peroxidase (HRP) and HRP substrate in the presence and absence of testing inhibitors and D-penicillamine (DPA), a LOX inhibitor. The mixture was incubated for 30 min at 37° C. in darkness. The fluorescence increase was then measured with a fluorescence plate reader (BMG Lab Tech FLUOstar) at Ex/Em=540/590 nm. Sample buffer or medium alone without LOXL2 was used for determination of the background fluorescence.

[3] = Bronchoalveolar lavage: immune cells and injury markers; type: in vivo; settings: BALF, bleomycin or saline treated mice
Protocol: Bronchoalveolar lavage. After the trachea was exposed, a 20-G catheter was inserted into the trachea through a small incision. 1 ml cold PBS was instilled into the mouse lungs followed by gentle aspiration repeated for three times. All the bronchoalveolar lavage fluid (BALF) was centrifuged and cell pellet was re-suspended in erythrocyte (RBC) lysis buffer (Sigma, St. Louis) followed by re-centrifugation. Cell number was counted using hemocytometer. Cell types of BALF were determined by morphology following Diff-quick stain of cytospin slides. About 500 cells were counted for each sample in order to determine the cell types. Macrophages account for more than 80% of the cells in BALF and were collected by centrifugation. After centrifugation, the supernatant was collected to measure total protein content using the BCA assay (Pierce), while the cell pellet was lysed for immunoblotting or RNA isolation.

[4] = test system: TGFβ1 signaling (p-smad3) in A549 cells; experiment: TGFβ1-induced p-smad generation in cells (immunoblot); type: cell-based; settings: 1 μM
Protocol: (§1) Immunoblot. Pulverized tissue and cells were lysed in RIP A buffer (150 mM NaCl, 50 mM Tris, pH 8.0, 1% Triton X-100, 0.5% sodium deoxycholate, 0.1% SDS, supplemented with protease and phosphatase inhibitors) and analyzed by immunoblotting. Densitometry was quantified using NIH Imaged software.

human LOXL2 [5] = target: T1, human LOXL2; experiment: LOXL2-induced stabilization of snail 1 protein in NMuMG cells; type: cell-based; design: Flag (C); expressed in transfected cells; host or cells: NMuMG cells; settings: 0.5 μM, 24 h
Protocol: as §1

[6] = test system: TGFβ1 signaling (p-smad3, snail 1); experiment: TGFβ1 signaling in NMuMG cells expressing wild-type or mutant LOXL2; type: cell-based; settings: 1 μM
Protocol: as §1
Site-directed mutagenesis of LOXL2. Site-directed mutagenesis was performed to generate K614N, K731R, and K759R point mutations using Phusion Site-Directed Mutagenesis Kit (Thermo Scientific, Waltham, Mass.) according to manufacturer's instructions. A pcDNA3-hLOXL2-flag plasmid containing the cDNA fragment of wild-type human LOXL2 fused with a flag tag at the C-terminus, was used as the template DNA^18. Mutations were confirmed by DNA sequencing. The primers and their complementary strands used are: K614N forward 5′-[…]-3′ (SEQ ID NO:2), K614N reverse 5′-[…]-3′(SEQ ID NO:3); K731R forward 5′-[…]-3′(SEQ ID NO:4), K731R reverse 5′-[…]-3′(SEQ ID NO:5); K759R forward 5′-[…]-3′(SEQ ID NO:6), and K759R reverse 5′-[…]-3′(SEQ ID NO:7).

[7] = Plasma level of corilagin, LC/MS analysis; type: in vivo, mice; settings: C57BL/6, mouse, 2 hrs after the last oral dose of 100 mg/kg, day 21, read-out: average circulating level
Protocol: Plasma level of corilagin—LC/MS analysis. Corilagin in C57BL/6 mice two hours following last oral administration at day 21 was analyzed. Blood samples (˜500 μL/sample) were collected via cardiac puncture. Samples were placed in tubes containing heparin sodium and stored on ice until centrifuged for plasma.

[8] = test system: C57BL/6 mice, intratracheal bleomycin; experiment: Bleomycin fibrosis model; type: in vivo; settings: daily gavage 100 mg/kg from day 10 after bleomycin, day 21
Protocol: For histological assessment of lung collagen, frozen sections of the left lung were stained using Masson's Trichrome stain kit (American MasterTech, Lodi, Calif., USA).
Bleomycin fibrosis model. Eight-week old C57BL/6 mice were intratracheally instilled with saline or 1.9 units/kg of bleomycin (Sigma-Aldrich). Mice were implanted with osmotic pumps loaded with ellagic acid salt (24 mg/kg/day, Day 10-Day 17), fed with red raspberry diet (Day 0-Day 21), or gavaged with corilagin (100 mg/kg, Day 10-Day 21). Controls were treated with control pump, control diet, or vehicle in the same formulation. The lungs were lavaged and followed by OCT embedding for imaging or snap freezing in liquid nitrogen for protein extraction or hydroxyproline assay.
Collagen content Lung or aorta collagen content was evaluated using hydroxyproline assay. Briefly, whole left lung tissue or aorta was hydrolyzed in 1 ml 12N HCl at 110° C. for 24 h and the hydroxyproline was detected by incubating with Chloramine T and p-dimethylaminobenzaldehyde and the absorbance was measured at 550 nm. Each sample was run in triplicate. Collagen content in lung or aorta tissues was expressed as micrograms of collagen per lung or aorta and was converted from micrograms of hydroxyproline.

IC50 (human LOXL2 [1]): 10 nM
corilagin concentration in conditioned medium (LOXL2-high A549 cells): decreased dramatically
corilagin concentration in conditioned medium (LOXL2-low HaCaT cells): not
IC50 (human LOXL2 [2]): 50 nM
LOXL2-induced stabilization of snail 1 protein (human LOXL2 [5]): blocked
concentration at 2 h [7]: 80 nM
Compound: O=C(O[C@@H]1O[C@@H]2COC(=O)c3cc(O)c(O)c(O)c3-c3c(cc(O)c(O)c3O)C(=O)O[C@H]([C@H]1O)[C@@H]2O)c1cc(O)c(O)c(O)c1 [corilagin, Corilagin]
immune cell numbers or markers of injury [3]: no effect
TGFβ1-induced p-smads after longer pre-incubation ([4]; pre-incubation 3 h or 6 h): completely suppressed
effects on p-smad3 generation after knockdown of LOXL2 ([4]; A549 cells and primary lung fibroblasts, 6 h): completely blocked
inhibition of TGFβ1 signaling in cells expressing K731R LOXL2 [6]: completely resistant
bleomycin-induced total lung collagen, fibronectin, snail 1, and p-smad3 [8]: marked attenuation
